# Assays:
# EP4 receptor (PTGER4) = target: T1, EP4 receptor (PTGER4) (Homo sapiens, UniProt P35408); test: PathHunter beta-arrestin cell-based prostanoid receptor assay, EP4; conditions: β-Arrestin
# T1 construct: expressed in transfected cells; host or cells: PathHunter β-Arrestin PTGER4 (EP4) cell line
# Experimental: (§1) DiscoverX cell-based ligand binding assays were performed in the PathHunter beta-arrestin (EP1, EP2, EP3, EP4, FP, IP, and TP receptors) or cAMP Hunter™ (DP receptor) cell lines.
# (§2) Receptor binding studies were performed in either the PathHunter® b-Arrestin (EP1, EP2, EP3, EP4, FP, IP, and TP receptors) or cAMP Hunter™ (DP receptor) cell lines. A 10 mM working stock of GP1681 was created in 1×PBS, pH 7.4. All assays were carried out in duplicate with 10 individual concentrations of GP1681. A three-fold dilution series of GP1681 was established for the initial or pilot experiment with a starting concentration of 4 uM (starting concentration was chosen based on previous Gemmus Pharma preclinical experimental results).
# (§3) GP1681 was incubated with cells lines at either 37° C. or room temperature, for 90-180 minutes (temperatures and incubation times are all dependent on established optimized procedures for each receptor cell line) after which cell wells were processed and signal production detected. […] Receptor binding activity was analyzed using CBIS data analysis suite (ChemInnovation, CA). The percentage of activity was calculated using the following formula: % Activity=100%×(mean RLU of test sample−mean RLU of vehicle control)/(mean MAX control ligand−mean RLU of vehicle control). Dose curves were performed and EC50 values determined. […]
# DP1 receptor (PTGDR) = target: T2, DP1 receptor (PTGDR) (Homo sapiens, UniProt Q13258); test: cAMP Hunter cell-based prostanoid receptor assay, DP receptor; conditions: HitHunter cAMP cell line
# T2 construct: host or cells: cAMP Hunter (DP receptor) cell line
# T2 sequence (Q13258 1-359): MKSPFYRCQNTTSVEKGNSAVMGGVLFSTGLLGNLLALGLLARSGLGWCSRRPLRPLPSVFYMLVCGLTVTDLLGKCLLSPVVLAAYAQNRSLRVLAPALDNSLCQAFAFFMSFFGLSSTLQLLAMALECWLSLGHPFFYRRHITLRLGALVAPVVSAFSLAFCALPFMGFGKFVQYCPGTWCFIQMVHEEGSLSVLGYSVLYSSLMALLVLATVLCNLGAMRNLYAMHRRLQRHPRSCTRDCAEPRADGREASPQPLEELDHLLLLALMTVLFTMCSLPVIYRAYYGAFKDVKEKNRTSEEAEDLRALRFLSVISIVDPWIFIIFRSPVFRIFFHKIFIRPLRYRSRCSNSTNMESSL
# Experimental: as §1, §2
# (§4) GP1681 was incubated with cells lines at either 37° C. or room temperature, for 90-180 minutes (temperatures and incubation times are all dependent on established optimized procedures for each receptor cell line) after which cell wells were processed and signal production detected. […] Vehicle only controls (PBS, pH 7.4) were also included for each receptor cell line. Receptor binding activity was analyzed using CBIS data analysis suite (ChemInnovation, CA). The percentage of activity was calculated using the following formula: % Activity=100%×(mean RLU of test sample−mean RLU of vehicle control)/(mean MAX control ligand−mean RLU of vehicle control). Dose curves were performed and EC50 values determined.
# (§5) The four assays were repeated with a higher starting concentration.
# (§6) The second experimental run of the receptor binding assay was performed with these last four cell lines including GP1681 and their respective positive and negative (vehicle, PBS pH 7.4) controls. A 10 mM GP1681 working stock was again created in 1×PBS, pH 7.4. A three-fold serial dilution scheme was again used for GP1681 samples, starting this time at a concentration of 500 μM. The remainder of the second experimental run was performed in the same manner as run 1.
# FP receptor (PTGFR) = target: T3, FP receptor (PTGFR) (Homo sapiens, UniProt P43088); test: PathHunter beta-arrestin cell-based prostanoid receptor assay, FP
# T3 construct: host or cells: PathHunter beta-arrestin cell line
# Experimental: as §1, §2
# (§7) GP1681 was incubated with cells lines at either 37° C. or room temperature, for 90-180 minutes (temperatures and incubation times are all dependent on established optimized procedures for each receptor cell line) after which cell wells were processed and signal production detected. […] Receptor binding activity was analyzed using CBIS data analysis suite (ChemInnovation, CA). The percentage of activity was calculated using the following formula: % Activity=100%×(mean RLU of test sample−mean RLU of vehicle control)/(mean MAX control ligand−mean RLU of vehicle control). Dose curves were performed and EC50 values determined.
# EP3 receptor (PTGER3) = target: T4, EP3 receptor (PTGER3) (Homo sapiens, UniProt P43115); test: PathHunter beta-arrestin cell-based prostanoid receptor assay, EP3; conditions: β-Arrestin
# T4 construct: host or cells: PathHunter beta-arrestin cell line
# T4 sequence (P43115 1-390): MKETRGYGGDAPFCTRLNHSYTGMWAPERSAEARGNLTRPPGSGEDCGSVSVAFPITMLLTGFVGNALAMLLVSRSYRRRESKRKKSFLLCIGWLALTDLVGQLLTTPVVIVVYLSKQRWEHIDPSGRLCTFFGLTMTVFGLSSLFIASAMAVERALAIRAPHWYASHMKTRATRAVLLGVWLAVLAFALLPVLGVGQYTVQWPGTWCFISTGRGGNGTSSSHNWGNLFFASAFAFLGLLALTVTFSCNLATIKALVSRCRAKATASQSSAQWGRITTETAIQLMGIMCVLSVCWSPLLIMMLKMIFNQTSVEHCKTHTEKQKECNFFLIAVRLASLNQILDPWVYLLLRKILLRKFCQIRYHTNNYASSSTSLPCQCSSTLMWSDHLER
# Experimental: as §1, §2, §3
# EP1 receptor (PTGER1) = target: T5, EP1 receptor (PTGER1) (Homo sapiens, UniProt P34995); test: PathHunter beta-arrestin cell-based prostanoid receptor assay, EP1; conditions: β-Arrestin
# T5 construct: host or cells: PathHunter beta-arrestin cell line
# T5 sequence (P34995 1-402): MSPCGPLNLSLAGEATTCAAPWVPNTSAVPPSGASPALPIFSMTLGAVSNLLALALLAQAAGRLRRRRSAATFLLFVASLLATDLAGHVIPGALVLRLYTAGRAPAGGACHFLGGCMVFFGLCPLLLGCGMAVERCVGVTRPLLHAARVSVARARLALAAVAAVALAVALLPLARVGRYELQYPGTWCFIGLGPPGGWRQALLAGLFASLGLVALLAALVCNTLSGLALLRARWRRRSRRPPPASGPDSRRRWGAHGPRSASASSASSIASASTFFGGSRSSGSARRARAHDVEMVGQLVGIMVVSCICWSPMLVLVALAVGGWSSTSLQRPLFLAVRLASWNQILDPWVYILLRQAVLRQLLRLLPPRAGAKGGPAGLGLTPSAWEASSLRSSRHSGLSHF
# Experimental: as §1, §2, §4, §5, §6
# [1] = Effect of food on oral absorption of GP1681
# EP2 receptor (PTGER2) = target: T6, EP2 receptor (PTGER2) (Homo sapiens, UniProt P43116); test: PathHunter beta-arrestin cell-based prostanoid receptor assay, EP2
# T6 construct: host or cells: PathHunter beta-arrestin cell line
# Experimental: as §1, §2, §7
# [2] = Run 1, GP1681 starting concentration 4 uM, curve for GP1681 not fully sigmoidal
# [3] = Run 2, GP1681 starting concentration 500 μM
# [4] = Run 1, GP1681 starting concentration 4 uM, β-Arrestin
# T6 sequence (P43116 whole entry): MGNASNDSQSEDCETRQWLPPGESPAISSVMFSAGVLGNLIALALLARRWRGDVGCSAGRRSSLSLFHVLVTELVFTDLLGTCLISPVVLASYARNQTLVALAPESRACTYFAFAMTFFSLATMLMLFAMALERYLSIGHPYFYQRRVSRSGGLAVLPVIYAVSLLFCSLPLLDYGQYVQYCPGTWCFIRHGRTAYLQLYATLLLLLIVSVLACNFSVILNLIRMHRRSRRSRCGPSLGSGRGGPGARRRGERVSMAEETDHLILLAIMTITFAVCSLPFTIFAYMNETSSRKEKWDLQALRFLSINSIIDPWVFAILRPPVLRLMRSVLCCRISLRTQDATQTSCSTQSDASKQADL
# T3 sequence (P43088 whole entry): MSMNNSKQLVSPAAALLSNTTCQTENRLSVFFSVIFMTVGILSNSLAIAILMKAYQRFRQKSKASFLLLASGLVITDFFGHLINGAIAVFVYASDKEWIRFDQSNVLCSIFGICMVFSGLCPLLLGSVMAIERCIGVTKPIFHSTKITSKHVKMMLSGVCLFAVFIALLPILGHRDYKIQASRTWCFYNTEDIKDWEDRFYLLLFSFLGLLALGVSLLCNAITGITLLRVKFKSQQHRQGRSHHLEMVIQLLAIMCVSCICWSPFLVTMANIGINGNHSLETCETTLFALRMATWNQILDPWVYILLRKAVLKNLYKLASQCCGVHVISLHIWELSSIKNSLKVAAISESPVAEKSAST
# T1 sequence (P35408 whole entry): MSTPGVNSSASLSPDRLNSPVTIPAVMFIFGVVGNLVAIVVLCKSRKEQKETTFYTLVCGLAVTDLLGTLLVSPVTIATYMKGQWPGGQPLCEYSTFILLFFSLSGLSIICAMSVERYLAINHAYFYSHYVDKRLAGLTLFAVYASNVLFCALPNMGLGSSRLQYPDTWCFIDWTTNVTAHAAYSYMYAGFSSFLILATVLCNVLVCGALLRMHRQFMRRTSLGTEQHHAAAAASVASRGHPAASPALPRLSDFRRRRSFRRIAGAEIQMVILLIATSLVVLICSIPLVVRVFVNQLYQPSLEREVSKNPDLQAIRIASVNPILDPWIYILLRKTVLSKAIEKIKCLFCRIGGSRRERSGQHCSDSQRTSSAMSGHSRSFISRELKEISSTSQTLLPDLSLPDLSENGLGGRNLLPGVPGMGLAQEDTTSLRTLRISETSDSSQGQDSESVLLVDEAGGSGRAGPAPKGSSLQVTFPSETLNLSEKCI
smiles,measurement,setting,value
"CC#CCC(C)C(O)C=CC1C(O)CC2Oc3c(CCCC(=O)O)cccc3C21 (single isomer, unassigned) [GP1681, esuberaprost]",EC50,EP4 receptor (PTGER4); [2],1.74 µM
same,EC50,EP4 receptor (PTGER4); [3],18.1 µM
same,EC50,DP1 receptor (PTGDR); [2],1.35 µM
same,EC50,DP1 receptor (PTGDR); [3],1.33 µM
same,"binding to FP receptor, in words",FP receptor (PTGFR),does not bind
same,EC50,FP receptor (PTGFR); [4],> 4 µM
same,EC50,EP3 receptor (PTGER3); [2],1.83 µM
same,EC50,EP3 receptor (PTGER3); [3],5.39 µM
same,EC50,EP1 receptor (PTGER1); [2],1.08 µM
same,EC50,EP1 receptor (PTGER1); [3],7.81 µM
same,effect of food on oral absorption,[1],positive effect
same,"binding to EP2 receptor, in words",EP2 receptor (PTGER2),does not bind
same,EC50,EP2 receptor (PTGER2); [4],> 4 µM

# Source: patent US12042503B2, “Compositions and methods for treating coronavirus infections” (priority 2020, dated 2024)
